# Earlier results in publication PMC12642135 (Food and Waterborne Parasitology, 2025).
# “Also recorded” adds a separate entry of the source.
# Test system: Toxoplasma gondii
# Design: method as in Kul et al., 2013
# Conditions: lambs, applied from the second week pi (day 14 pi) onwards; ref Kul et al., 2013
smiles,measurement,value
Cc1cc(-n2c(=O)[nH]c(=O)n(C)c2=O)ccc1Oc1ccc(SC(F)(F)F)cc1 [toltrazuril],Reduction of tissue cysts,mildly reduced; also recorded: partial reduction
